A word on the pKi: it is −log10 of the Ki, conventionally taken in molar units. A lower pKi goes with a large Ki.

The values that follow come from BindingDB's records for doi:10.1124/jpet.301.1.37 (National Institutes of Health, 2002).

For assay [1], the target named is T1, VIP peptides (Homo sapiens, UniProt P01282).
T1 sequence (P01282 whole entry): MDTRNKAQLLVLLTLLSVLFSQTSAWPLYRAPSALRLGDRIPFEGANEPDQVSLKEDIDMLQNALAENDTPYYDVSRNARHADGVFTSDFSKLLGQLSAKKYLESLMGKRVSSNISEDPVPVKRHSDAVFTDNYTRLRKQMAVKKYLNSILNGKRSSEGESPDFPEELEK

Assay [2] addresses T2, VIP peptides (Cavia porcellus, UniProt P04566).
T2 sequence (P04566 whole entry): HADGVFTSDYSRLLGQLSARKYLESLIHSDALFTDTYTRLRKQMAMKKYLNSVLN

pKi: −log10 of the molar value. Several values for one entry are separate records, joined by “and”; a condition that tells them apart may be missing. Equal entries are not always repeated.

Take `CC[C@H](C)[C@H](NC(=O)[C@H](CO)NC(=O)[C@H](CC(N)=O)NC(=O)[C@H](CC(C)C)NC(=O)[C@H](Cc1ccc(O)cc1)NC(=O)[C@H](CCCCN)NC(=O)[C@H](CCCCN)NC(=O)[C@@H](NC(=O)[C@H](C)NC(=O)[C@H](CCSC)NC(=O)[C@H](CCC(N)=O)NC(=O)[C@H](CCCCN)NC(=O)[C@H](CCCN=C(N)N)NC(=O)[C@H](CC(C)C)NC(=O)[C@H](CCCN=C(N)N)NC(=O)[C@@H](NC(=O)[C@H](Cc1ccc(O)cc1)NC(=O)[C@H](CC(N)=O)NC(=O)[C@H](CC(=O)O)NC(=O)[C@@H](NC(=O)[C@H](Cc1ccccc1)NC(=O)[C@@H](NC(=O)[C@H](C)NC(=O)[C@H](CC(=O)O)NC(=O)[C@H](CO)NC(=O)[C@@H](N)Cc1cnc[nH]1)C(C)C)[C@@H](C)O)[C@@H](C)O)C(C)C)C(=O)N[C@@H](CC(C)C)C(=O)N[C@@H](CC(N)=O)C(=O)O` [CAS_37221-79-7]: the pKi is 8.77 and 8.80 at VIP peptides [1]; 8.60 on VIP peptides [2].
At VIP peptides [2], `CC[C@H](C)[C@H](NC(=O)[C@H](CO)NC(=O)[C@H](CC(N)=O)NC(=O)[C@H](CC(C)C)NC(=O)[C@H](Cc1ccc(O)cc1)NC(=O)[C@H](CCCCN)NC(=O)[C@H](CCCCN)NC(=O)[C@@H](NC(=O)[C@H](C)NC(=O)[C@@H](CCSC)NC(=O)[C@H](CCC(N)=O)NC(=O)[C@H](CCCCN)NC(=O)[C@H](CCCN=C(N)N)NC(=O)[C@H](CC(C)C)NC(=O)[C@H](CCCN=C(N)N)NC(=O)C(NC(=O)[C@H](Cc1ccc(O)cc1)NC(=O)[C@H](CC(N)=O)NC(=O)[C@H](CC(=O)O)NC(=O)[C@@H](NC(=O)[C@H](Cc1ccccc1)NC(=O)[C@@H](NC(=O)[C@H](C)NC(=O)[C@H](CC(=O)O)NC(=O)[C@H](CO)NC(=O)[C@@H](N)Cc1cnc[nH]1)C(C)C)[C@@H](C)O)[C@@H](C)O)C(C)C)C(=O)N[C@@H](CC(C)C)C(=O)N[C@@H](CC(N)=O)C(N)=O` (stereo partly drawn) [VIP [D- Met 17]] showed a pKi of 7.48.
In the case of `CC[C@H](C)[C@H](NC(=O)[C@H](CO)NC(=O)[C@H](CC(N)=O)NC(=O)[C@H](CC(C)C)NC(=O)[C@H](Cc1ccc(O)cc1)NC(=O)[C@H](CCCCN)NC(=O)[C@H](CCCCN)NC(=O)[C@@H](NC(=O)[C@@H](C)NC(=O)[C@H](CCSC)NC(=O)[C@H](CCC(N)=O)NC(=O)[C@H](CCCCN)NC(=O)[C@H](CCCN=C(N)N)NC(=O)[C@H](CC(C)C)NC(=O)[C@H](CCCN=C(N)N)NC(=O)[C@@H](NC(=O)[C@H](Cc1ccc(O)cc1)NC(=O)[C@H](CC(N)=O)NC(=O)[C@H](CC(=O)O)NC(=O)[C@@H](NC(=O)[C@H](Cc1ccccc1)NC(=O)[C@@H](NC(=O)[C@H](C)NC(=O)[C@H](CC(=O)O)NC(=O)[C@H](CO)NC(=O)[C@@H](N)Cc1cnc[nH]1)C(C)C)[C@@H](C)O)[C@@H](C)O)C(C)C)C(=O)N[C@@H](CC(C)C)C(=O)N[C@@H](CC(N)=O)C(N)=O` [VIP [D-Ala18]], the pKi is 8.46 and 7.81 and 7.92 at VIP peptides [1]; 7.75 on VIP peptides [2].
`CC[C@H](C)[C@H](NC(=O)[C@H](CO)NC(=O)[C@H](CC(N)=O)NC(=O)[C@H](CC(C)C)NC(=O)[C@H](Cc1ccc(O)cc1)NC(=O)[C@H](CCCCN)NC(=O)[C@H](CCCCN)NC(=O)[C@@H](NC(=O)[C@H](C)NC(=O)[C@H](CCSC)NC(=O)[C@H](CCC(N)=O)NC(=O)[C@H](CCCCN)NC(=O)[C@H](CCCN=C(N)N)NC(=O)[C@H](CC(C)C)NC(=O)[C@H](CCCN=C(N)N)NC(=O)[C@@H](NC(=O)[C@H](Cc1ccc(O)cc1)NC(=O)[C@@H](CC(N)=O)NC(=O)[C@H](CC(=O)O)NC(=O)[C@@H](NC(=O)[C@H](Cc1ccccc1)NC(=O)[C@@H](NC(=O)[C@H](C)NC(=O)[C@H](CC(=O)O)NC(=O)[C@H](CO)NC(=O)[C@@H](N)Cc1cnc[nH]1)C(C)C)[C@@H](C)O)[C@@H](C)O)C(C)C)C(=O)N[C@@H](CC(C)C)C(=O)N[C@@H](CC(N)=O)C(N)=O` [VIP [D-Asn9]]: the pKi on VIP peptides [2] was 8.55.
Regarding `CC[C@H](C)[C@H](NC(=O)[C@H](CO)NC(=O)[C@@H](CC(N)=O)NC(=O)[C@H](CC(C)C)NC(=O)[C@H](Cc1ccc(O)cc1)NC(=O)[C@H](CCCCN)NC(=O)[C@H](CCCCN)NC(=O)[C@@H](NC(=O)[C@H](C)NC(=O)[C@H](CCSC)NC(=O)[C@H](CCC(N)=O)NC(=O)[C@H](CCCCN)NC(=O)[C@H](CCCN=C(N)N)NC(=O)[C@H](CC(C)C)NC(=O)[C@H](CCCN=C(N)N)NC(=O)[C@@H](NC(=O)[C@H](Cc1ccc(O)cc1)NC(=O)[C@H](CC(N)=O)NC(=O)[C@H](CC(=O)O)NC(=O)[C@@H](NC(=O)[C@H](Cc1ccccc1)NC(=O)[C@@H](NC(=O)[C@H](C)NC(=O)[C@H](CC(=O)O)NC(=O)[C@H](CO)NC(=O)[C@@H](N)Cc1cnc[nH]1)C(C)C)[C@@H](C)O)[C@@H](C)O)C(C)C)C(=O)N[C@@H](CC(C)C)C(=O)N[C@@H](CC(N)=O)C(N)=O` [VIP [D-Asn24]], the pKi on VIP peptides [1] is 8.59 and 7.93 and 7.90; at VIP peptides [2] it was 7.22.
As for `CC[C@H](C)[C@H](NC(=O)[C@H](CO)NC(=O)[C@H](CC(N)=O)NC(=O)[C@H](CC(C)C)NC(=O)[C@H](Cc1ccc(O)cc1)NC(=O)[C@H](CCCCN)NC(=O)[C@H](CCCCN)NC(=O)[C@@H](NC(=O)[C@H](C)NC(=O)[C@H](CCSC)NC(=O)[C@H](CCC(N)=O)NC(=O)[C@H](CCCCN)NC(=O)[C@H](CCCN=C(N)N)NC(=O)[C@H](CC(C)C)NC(=O)[C@H](CCCN=C(N)N)NC(=O)[C@@H](NC(=O)[C@H](Cc1ccc(O)cc1)NC(=O)[C@H](CC(N)=O)NC(=O)[C@@H](CC(=O)O)NC(=O)[C@@H](NC(=O)[C@H](Cc1ccccc1)NC(=O)[C@@H](NC(=O)[C@H](C)NC(=O)[C@H](CC(=O)O)NC(=O)[C@H](CO)NC(=O)[C@@H](N)Cc1cnc[nH]1)C(C)C)[C@@H](C)O)[C@@H](C)O)C(C)C)C(=O)N[C@@H](CC(C)C)C(=O)N[C@@H](CC(N)=O)C(N)=O` [VIP [D-Asp8]], the pKi at VIP peptides [1] is 6.96 and 6.86 and 6.75; at VIP peptides [2], 6.56.
Consider `CC[C@H](C)[C@H](NC(=O)[C@H](CO)NC(=O)[C@H](CC(N)=O)NC(=O)[C@H](CC(C)C)NC(=O)[C@H](Cc1ccc(O)cc1)NC(=O)[C@H](CCCCN)NC(=O)[C@H](CCCCN)NC(=O)[C@@H](NC(=O)[C@H](C)NC(=O)[C@H](CCSC)NC(=O)[C@H](CCC(N)=O)NC(=O)[C@H](CCCCN)NC(=O)[C@H](CCCN=C(N)N)NC(=O)[C@H](CC(C)C)NC(=O)[C@H](CCCN=C(N)N)NC(=O)[C@@H](NC(=O)[C@H](Cc1ccc(O)cc1)NC(=O)[C@H](CC(N)=O)NC(=O)[C@H](CC(=O)O)NC(=O)[C@@H](NC(=O)[C@H](Cc1ccccc1)NC(=O)[C@@H](NC(=O)[C@H](C)NC(=O)[C@H](CC(=O)O)NC(=O)[C@H](CO)NC(=O)[C@H](N)Cc1cnc[nH]1)C(C)C)[C@@H](C)O)[C@@H](C)O)C(C)C)C(=O)N[C@@H](CC(C)C)C(=O)N[C@@H](CC(N)=O)C(N)=O` [VIP [D-His1]], for which the pKi was 9.13 and 8.39 and 8.43 on VIP peptides [1]; 7.65 on VIP peptides [2].
In turn, `CC[C@H](C)[C@H](NC(=O)[C@H](CO)NC(=O)[C@H](CC(N)=O)NC(=O)[C@H](CC(C)C)NC(=O)[C@H](Cc1ccc(O)cc1)NC(=O)[C@H](CCCCN)NC(=O)[C@H](CCCCN)NC(=O)[C@@H](NC(=O)[C@H](C)NC(=O)[C@H](CCSC)NC(=O)[C@H](CCC(N)=O)NC(=O)[C@H](CCCCN)NC(=O)[C@H](CCCN=C(N)N)NC(=O)[C@H](CC(C)C)NC(=O)[C@H](CCCN=C(N)N)NC(=O)[C@@H](NC(=O)[C@H](Cc1ccc(O)cc1)NC(=O)[C@H](CC(N)=O)NC(=O)[C@H](CC(=O)O)NC(=O)[C@@H](NC(=O)[C@H](Cc1ccccc1)NC(=O)[C@@H](NC(=O)[C@H](C)NC(=O)[C@H](CC(=O)O)NC(=O)[C@H](CO)NC(=O)[C@@H](N)Cc1cnc[nH]1)C(C)C)[C@@H](C)O)[C@@H](C)O)C(C)C)C(=O)N[C@H](CC(C)C)C(=O)N[C@@H](CC(N)=O)C(N)=O` [VIP [D-Leu27]] gave a pKi on VIP peptides [2] of 8.30.
With `CC[C@H](C)[C@H](NC(=O)[C@H](CO)NC(=O)[C@H](CC(N)=O)NC(=O)[C@H](CC(C)C)NC(=O)[C@H](Cc1ccc(O)cc1)NC(=O)[C@H](CCCCN)NC(=O)[C@H](CCCCN)NC(=O)[C@@H](NC(=O)[C@H](C)NC(=O)[C@@H](CCSC)NC(=O)[C@H](CCC(N)=O)NC(=O)[C@H](CCCCN)NC(=O)[C@H](CCCN=C(N)N)NC(=O)[C@H](CC(C)C)NC(=O)[C@H](CCCN=C(N)N)NC(=O)C(NC(=O)[C@H](Cc1ccc(O)cc1)NC(=O)[C@H](CC(N)=O)NC(=O)[C@H](CC(=O)O)NC(=O)C(NC(=O)[C@H](Cc1ccccc1)NC(=O)[C@@H](NC(=O)[C@H](C)NC(=O)[C@H](CC(=O)O)NC(=O)[C@H](CO)NC(=O)[C@@H](N)Cc1cnc[nH]1)C(C)C)[C@@H](C)O)[C@@H](C)O)C(C)C)C(=O)N[C@@H](CC(C)C)C(=O)N[C@@H](CC(N)=O)C(N)=O` (stereo partly drawn) [VIP [D-Met17]], the pKi on VIP peptides [1] was 8.17 and 7.53 and 7.44.
In turn, `CC[C@H](C)[C@H](NC(=O)[C@@H](CO)NC(=O)[C@H](CC(N)=O)NC(=O)[C@H](CC(C)C)NC(=O)[C@H](Cc1ccc(O)cc1)NC(=O)[C@H](CCCCN)NC(=O)[C@H](CCCCN)NC(=O)[C@@H](NC(=O)[C@H](C)NC(=O)[C@H](CCSC)NC(=O)[C@H](CCC(N)=O)NC(=O)[C@H](CCCCN)NC(=O)[C@H](CCCN=C(N)N)NC(=O)[C@H](CC(C)C)NC(=O)[C@H](CCCN=C(N)N)NC(=O)[C@@H](NC(=O)[C@H](Cc1ccc(O)cc1)NC(=O)[C@H](CC(N)=O)NC(=O)[C@H](CC(=O)O)NC(=O)[C@@H](NC(=O)[C@H](Cc1ccccc1)NC(=O)[C@@H](NC(=O)[C@H](C)NC(=O)[C@H](CC(=O)O)NC(=O)[C@H](CO)NC(=O)[C@@H](N)Cc1cnc[nH]1)C(C)C)[C@@H](C)O)[C@@H](C)O)C(C)C)C(=O)N[C@@H](CC(C)C)C(=O)N[C@@H](CC(N)=O)C(N)=O` [VIP [D-Ser25]] gave a negative logarithm of the Ki (pKi) at VIP peptides [2] of 7.36.
Take “H-HSDAAFTDNYTRLRKQMAVKKYLNSILN-NH2 [VIP Ala5]”: the pKi on VIP peptides [2] was 7.46.
On the same count and under the same terms, in the case of “H-HSDAVFTDNYTRLRKQMAVKKYLASILN-NH2 [VIP Ala24]” it was 8.05; in that of “H-HSDAVFTDNYTRLRKQMAVKKYLNSALN-NH2 [VIP Ala26]”, 8.37 and 7.91.
